{"source": "patent US20190282632A1", "about": "“METHODS AND PRODUCTS FOR MODULATING MICROBIOTA COMPOSITION FOR IMPROVING THE EFFICACY OF A CANCER TREATMENT WITH AN IMMUNE CHECKPOINT BLOCKER” (INSTITUT GUSTAVE ROUSSY, priority 2014, published 2019)", "key": {"MCA205 sarcoma": {"tested_on": "MCA205 sarcoma", "assay": "Tumor growth of established MCA205 sarcoma under anti-CTLA4 (9D9) therapy, with antibiotics, gene-deficient hosts, co-administered mAbs or oral bacteria", "conditions": "for Effect of antibiotic regimen on the antitumor effects of 9D9 Ab against MCA205 sarcomas: SPF mice, antibiotics in drinking water", "protocol": "Mice were subcutaneously injected into the right flank with 1×10^6 MCA205-0VA or MC38, or with 0.2×10^6 CT26 tumor cell lines. When tumors reached a size of 25 to 40 mm^2 (day 0), mice were injected intraperitoneally (i.p) with 100 μg of anti-CTLA-4 mAb (clone 9D9) or isotype control (clone MPC11). Mice were injected 5 times at 3-day intervals with 9D9, and tumor size was routinely monitored by means of a caliper. In order to evaluate the synergistic effect of vancomycin and anti-CTLA4, a prophylactic setting was established. […] In experiments using anti-IL-12p40 mAb (clone C17.8, 500 μg per mouse) or anti-Ly6G mAb (clone 1A8, 200 μg per mouse), mAbs (or their isotype controls, clone 2A3 in both cases) were injected i.p. every 2 days starting from day 0 until the final anti-CTLA-4 injection. […] All mAbs for in vivo use were obtained from BioXcell (West Lebanon, N.H., USA), using the recommended isotype control mAbs. The inhibitor of iNOS, NG-monomethyl-L-arginine (L-NMMA; Sigma), was administered in PBS daily to mice i.p. at a dose of 2 mg per mouse from the start of anti-CTLA4 treatment.\nMice were treated with antibiotics 2-3 weeks before tumor implantation and continued on antibiotics until the end of the experiment. A mix of ampicillin (1 mg/ml), streptomycin (5 mg/ml), and colistin (1 mg/ml) (Sigma-Aldrich), or vancomycin alone (0.25 mg/ml), or imipenem alone (0.25 mg/ml), or colistin alone (2.103 U/ml) were added in sterile drinking water. Solutions and bottles were changed 2-3 times a week, or daily for experiments with imipenem. Antibiotic activity was confirmed by macroscopic changes observed at the level of caecum (dilatation) and by cultivating the fecal pellets resuspended in BHI+15% glycerol at 0.1 g/ml on blood agar plates for 48 h at 37° C. with 5% CO2 in aerobic or anaerobic conditions.\nFor inoculation of GF mice or mice treated with broad-spectrum antibiotics, colonization was performed the day following the first anti-CTLA4 injection by oral gavage with 100 μl of suspension containing 1×10^9 bacteria. Efficient colonization was checked by culture of feces 48 h post oral gavage. Bacteroides fragilis, Bacteroides thetaiotaomicron, Bacteroides distasonis, Bacteroides uniformis, Lactobacillus plantarum and Enterococcus hirae were grown on COS agar plates (Biomerieux) for 48 h at 37° C. with 5% CO2 in anaerobic conditions. E. coli and Burkholderia cepacia were grown on COS agar plates for 24 h at 37° C. with 5% CO2 in aerobic conditions. Bacteria were harvested from the agar plates, suspended in sterile PBS, centrifuged and washed once with PBS, then resuspended in sterile PBS at an optical density (600 nm) of 1, which corresponds approximately to 1×10^9 colony-forming units (CFU)/ml. In cases where more than one bacteria was administered, an equal volume of each bacteria suspension was mixed to give a suspension of equal proportion of each type of bacteria, to a total 1×10^9 bacteria/ml. For bacteria reconstitution experiments using mice previously treated with antibiotics, antibiotics treatment was stopped after 2-3 weeks at the first anti-CTLA4 injection, and mice were orally gavaged with 1×10^9 CFU the following day. B. distasonis, B. uniformis, E. hirae, and E. coli isolates used in the experiments were originally isolated from feces or mesenteric lymph nodes of SPF mice treated with anti-CTLA4 and identified as described above. […] LPS-EK and LTA-SA (Invivogen) were administrated by oral gavage, at a dose of 500 μg per mouse."}, "[1]": {"tested_on": "small intestine and colon", "assay": "Histology and histopathological scoring of gut tissue", "format": "in vivo, mice", "conditions": "vancomycin-treated tumor bearers", "procedure": "The whole small intestine (duodenum, jejunum and ileum) and the colon were removed, cleaned from feces and fixed in 4% PFA for 1 h. Rehydratation of the tissue was performed in 15% sucrose for 1 h and in 30% sucrose overnight. Small intestines or colons were cut longitudinally, with the resulting ribbons rolled, then embedded in optimum cutting temperature (OCT) compound (Sakura), snap frozen, and longitudinal 6 μm sections were prepared. For histological analysis, longitudinal sections were counterstained with hematoxilin and eosin. For histological quantitative analysis, inflammatory foci, appearance of the submucosa, length of villi, and the thickness of lamina propria were scored for each section by a pathologist."}, "[2]": {"tested_on": "bacterial families and orders in feces", "assay": "454 pyrosequencing of 16S rRNA gene amplicons of feces from tumor bearers", "protocol": "Fecal samples used in this study were collected before or after one injection of anti-CTLA4 (or isotype control) from mice under vancomycin regimen or water, and were kept at −80° C. until further analysis. Library preparation and sequencing were conducted at GATC Biotech AG (Konstanz, Germany)."}, "CD4+CD45RO+ T cells": {"tested_on": "CD4+CD45RO+ T cells", "assay": "Recall of human CD4+ T cell responses directed against commensals (IFNγ, IL-10)", "format": "cell-based", "procedure": "(§1) All clinical studies were conducted after informed consent of the patients, following the guidelines of the Declaration of Helsinki. Peripheral blood mononuclear cells (PBMC) were provided by Gustave Roussy (Villejuif, France) and by the Department of Radiation Oncology (New York University, New York, N.Y., USA). Patients were included in the following protocols: LUDWIG: MAGE3 protein—based vaccines (25), Meladex vaccine Phase I trial (26), Mel-Ipi-Rx, NCT01557114 (European Union Drug Regulating Authorities clinical trial EudraCT 2010-020317-93) and a pilot study approved by the Kremlin Bicetre Hospital Ethics Committee (n° SC12-018; ID RCB: 2012-A01496-37). Ipilimumab/radiotherapy abscopal effect trials in MM and NSCLC at NYU (Study code: NCT01689974, Study code: NCT0222173). MM patients at baseline were investigated prior to vaccine injections in the Ludwig and Meladex protocols. For memory T cell responses, blood samples were drawn from patients before and after 3 or 4 cycles of ipilimumab. Pyrosequencing analyses of 16S rRNA of gene amplicons in patients feces pre- and post-injections of ipilimumab (V0, V1, V2) were performed according to n° SC12-018; ID RCB: 2012-A01496-37 pilot study endpoints by GATC Biotech AG (Konstanz, Germany).\nAssessing CD4^+ T cell memory responses. Murine systems. Bone marrow-derived dendritic cells (BM-DCs) were generated from femurs and tibiae of C57BL/6 mice, cultured for 7 days in Iscove's medium (Sigma-Aldrich) with J558 supernatant (final GM-CSF concentration of 40 ng/ml), 10% FCS, 100 IU/ml penicillin/streptomycin, 2 mM L-glutamine, 50 μM 2-mercaptoethanol (Sigma-Aldrich) and split every 3-4 days. At day 7, BM-DCs were infected with the isolated bacterial strains at multiplicity of infection (MOI) of 10 or 50, for 1 h at 37° C. in complete Iscove's medium without antibiotics, onto specific low binding 6 wells plates (Sigma). Cells were then washed with PBS and incubated in complete Iscove's medium supplemented with gentamicin (50 μg/ml) to kill extracellular bacteria. For Burkholderia cepacia, the antibiotic meropenem (2 μg/mL, Astra Zeneca) was required. After 24 h, BM-DCs were cultured together with CD4^+ T cells purified from the spleens of mice that had received 7 days treatment of anti-CTLA4 mAb (i.e 3 anti-CTLA4 mAb injections, as detailed above) in complete RPMI medium. CD4^+ T cells were isolated by depletion of non CD4^+ T cells using a cocktail of biotin-conjugated antibodies against CD8a, CD11b, CD11c, CD19, CD45R (B220), CD49b (DX5), CD105, Anti-MHC-class II, Ter-119 and TCRγ/δ as primary labeling reagent. The cells were then magnetically labeled with Anti-Biotin MicroBeads (Miltenyi Biotec, France). […]"}, "metastatic melanoma": {"tested_on": "metastatic melanoma", "conditions": "cited from earlier work; for Durable disease control: after more than 7 years of follow-up, MM"}, "[3]": {"tested_on": "gut microbiome of metastatic melanoma patients", "assay": "Pyrosequencing of 16S rRNA gene amplicons of patients' feces and clustering into enterotypes A, B, C", "format": "in vivo, human", "procedure": "as §1\nGOLD: Prospective immunomonitoring study of patients with metastatic melanoma receiving four injections of Ipilimumab every three weeks. In addition to peripheral blood sampling for memory T cell responses assessment, feces were collected before each Ipilimumab injection. Feces samples were frozen at −80° C. and sent for 16RNA pyrosequencing analysis at GATC Biotech AG (Konstanz, Germany)."}}, "note": "“Also recorded” adds a separate entry of the source. Where two headings read alike, the source gives them in different places."}
{"compound": "CNC(=N)NCCC[C@H](N)C(=O)O", "note": "[L-NMMA, NG-monomethyl-L-arginine]", "values": [{"measurement": "9D9 mAb-induced tumoricidal activity upon neutralization of nitric oxide", "setting": "MCA205 sarcoma; 2 mg per mouse daily i.p.", "result": "failed to affect; also recorded: did not alter the antitumor effects"}]}
{"compound": "CN[C@H](CC(C)C)C(=O)N[C@H]1C(=O)N[C@@H](CC(N)=O)C(=O)N[C@H]2C(=O)N[C@H]3C(=O)N[C@H](C(=O)N[C@H](C(=O)O)c4cc(O)cc(O)c4-c4cc3ccc4O)[C@H](O)c3ccc(c(Cl)c3)Oc3cc2cc(c3O[C@@H]2O[C@H](CO)[C@@H](O)[C@H](O)[C@H]2O[C@H]2C[C@](C)(N)[C@H](O)[C@H](C)O2)Oc2ccc(cc2Cl)[C@H]1O", "note": "[Vancomycin, vancomycin]", "values": [{"measurement": "Effect of antibiotic regimen on the antitumor effects of 9D9 Ab against MCA205 sarcomas", "setting": "MCA205 sarcoma", "result": "boosted the antitumor effects; also recorded: augments the tumoricidal effects"}, {"measurement": "Effect of antibiotic regimen on the antitumor effects of 9D9 Ab against MCA205 sarcomas", "setting": "MCA205 sarcoma; listed as vancomycin", "result": "ameliorated the tumor growth reduction"}, {"measurement": "Histopathological score of colonic mucosae under anti-CTLA4", "setting": "[1]", "result": "worsened the histopathological score"}, {"measurement": "Depletion of Bacteroidales and Burkholderiales provoked by CTLA4 blockade", "setting": "[2]; vancomycin conditioning", "result": "prevented the depletion; also recorded: prevented the loss"}, {"measurement": "Representation of Bacteroidales (and Enterobacteriales) at the expense of Clostridiales", "setting": "[2]; vancomycin in drinking water", "result": "overrepresentation"}]}
{"compound": "Ipilimumab", "values": [{"measurement": "Decreased commensal-specific Th1 immunity of cancer patients", "setting": "CD4+CD45RO+ T cells; at least in some cases", "result": "restored"}, {"measurement": "IL-10 production by T cells responding to Bf, B. thetaiotaomicron and to some extent Burkholderia cepacia", "setting": "CD4+CD45RO+ T cells; melanoma patients, after at least 2 injections", "result": "inhibited"}, {"measurement": "IFNγ secretion by T cells responding to Bf and B. thetaiotaomicron", "setting": "CD4+CD45RO+ T cells; melanoma patients, after at least 2 injections, not E. coli, E. faecalis or irrelevant bacteria", "result": "significantly increased"}, {"measurement": "B. thetaiotaomicron-specific Tr1 immune responses", "setting": "CD4+CD45RO+ T cells; paired analyses on 5-12 patients", "result": "decrease"}, {"measurement": "Durable disease control", "setting": "metastatic melanoma", "result": "about 20%"}, {"measurement": "Durable disease control", "setting": "metastatic melanoma; listed as ipilimumab", "result": "approximately 20%"}, {"measurement": "Immune-related adverse events of grade III-IV", "setting": "metastatic melanoma; human, in vivo, iv", "result": 20, "unit": "%"}, {"measurement": "Life threatening immune-related adverse events", "setting": "metastatic melanoma; human, in vivo", "result": "< 5", "unit": "%"}, {"measurement": "Proportion of MM patients falling into cluster C during therapy", "setting": "[3]; from 26 before therapy", "result": 39, "unit": "%"}, {"measurement": "Proportion of MM patients belonging to cluster B during therapy", "setting": "[3]; from 58 before therapy", "result": 39, "unit": "%"}, {"measurement": "Stools of a B pattern that turned into the C favorable enterotype", "setting": "[3]; paired analysis of feces in 12 cases, 2 out of 7", "result": 29, "unit": "%"}]}
{"compound": "colistin", "values": [{"measurement": "Effect of antibiotic regimen on the antitumor effects of 9D9 Ab against MCA205 sarcomas", "setting": "MCA205 sarcoma", "result": "compromised the antitumor effects"}]}
{"compound": "lipoteichoic acid", "values": [{"measurement": "Restoration of 9D9 mAb-induced antitumor effects lost in ACS-treated mice", "setting": "MCA205 sarcoma; oral administration, 500 μg per mouse", "result": "failed to restore"}]}
